Legend:
male OF1 mice = test: test for analgesia: PBQ (phenylbenzoquinone)-induced abdominal tractions; format: in vivo; settings: 10 mg/kg p.o.
Description: The in vivo activity of the compounds of the invention was evaluated in a test for analgesia. Thus, the intraperitoneal (i.p.) administration of PBQ (phenylbenzoquinone, 2 mg/kg in a 0.9% sodium chloride solution comprising 5% of ethanol) to male OF1 mice weighing 25 to 30 g causes abdominal tractions, on average 30 twisting or contracting motions during the period from 5 to 15 minutes after injection. The test compounds are administered, orally (p.o.) or intraperitoneally (i.p.) in suspension in 0.5% Tween 80, 60 minutes or 120 minutes before the administration of PBQ. Under these conditions, the most powerful compounds of the invention reduce by 35 to 70% the number of tractions induced by the PBQ, within a range of doses of between 1 and 30 mg/kg.

[1] = molecular target: T1, enzyme FAAH (Fatty Acid amido Hydrolase) (Mus musculus, UniProt O08914); test: radioenzymatic test of FAAH inhibition (hydrolysis of ((1-3H)ethanolamine)-anandamide by mouse brain membrane homogenates); format: biochemical; settings: 10 μM anandamide, 15 minutes at 25° C., read-out: IC50 (concentration which inhibits the control enzymatic activity of FAAH by 50%)
T1 construct: The membrane homogenates are prepared at the time of use by homogenization of the tissues with a Polytron; from tissue; host or cells: mouse brain (minus the cerebellum), membrane homogenate
T1 sequence (O08914 1-579): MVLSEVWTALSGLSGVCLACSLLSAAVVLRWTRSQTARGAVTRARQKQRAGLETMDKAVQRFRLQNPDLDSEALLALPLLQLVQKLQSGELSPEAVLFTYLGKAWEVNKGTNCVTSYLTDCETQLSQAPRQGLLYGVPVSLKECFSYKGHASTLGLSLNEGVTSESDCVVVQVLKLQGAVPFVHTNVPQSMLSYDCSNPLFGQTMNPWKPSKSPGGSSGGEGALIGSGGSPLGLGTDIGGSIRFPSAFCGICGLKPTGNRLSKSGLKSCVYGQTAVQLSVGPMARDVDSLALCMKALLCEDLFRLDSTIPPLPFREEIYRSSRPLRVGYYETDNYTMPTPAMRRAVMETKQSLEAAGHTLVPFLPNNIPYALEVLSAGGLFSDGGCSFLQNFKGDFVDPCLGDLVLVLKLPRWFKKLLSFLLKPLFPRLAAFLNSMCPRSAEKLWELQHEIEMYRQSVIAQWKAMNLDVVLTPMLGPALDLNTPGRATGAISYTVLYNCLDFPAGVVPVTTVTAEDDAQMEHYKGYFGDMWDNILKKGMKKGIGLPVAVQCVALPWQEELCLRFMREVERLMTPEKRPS
Description: The compounds of the invention have formed the subject of pharmacological trials which make it possible to determine their inhibitory effect on the enzyme FAAH (Fatty Acid amido Hydrolase).
Thus, mouse brains (minus the cerebellum) are removed and stored at −80° C. The membrane homogenates are prepared at the time of use by homogenization of the tissues with a Polytron in a 10 mM Tris-HCl buffer (pH 8.0) comprising 150 mM NaCl and 1 mM EDTA. The enzymatic reaction is subsequently carried out in 70 μl of buffer comprising bovine serum albumin free from fatty acids (1 mg/ml). The test compounds, at various concentrations, the ((1-^3H)ethanolamine)-anandamide (specific activity of 15-20 Ci/mmol), diluted to 10 μM with non-radiolabelled anandamide, and the membrane preparation (400 μg of frozen tissue per assay) are successively added. After 15 minutes at 25° C., the enzymatic reaction is halted by addition of 140 μl of chloroform/methanol (2:1). The mixture is stirred for 10 minutes and is then centrifuged at 3500 g for 15 minutes. An aliquot (30 μl) of the aqueous phase comprising the (1-^3H)ethanolamine is counted by liquid scintillation.

Row | Compound | melting point [°C] | further results
1 | CNC(=O)COC(=O)NCCc1ccc(-c2ccccc2)nc1 [Compound 3, 2-(methylamino)-2-oxoethyl 2-(6-phenylpyrid-3-yl)ethylcarbamate] | 130 to 132 | 
2 | CNC(=O)COC(=O)NCCCc1cc(-c2ccc(Cl)cc2)ncn1 [Compound 20, 2-(methylamino)-2-oxoethyl 3-[6-(4-chlorophenyl)pyrimidin-4-yl]propylcarbamate] | 147 to 149 | 
3 | CNC(=O)COC(=O)NCCCc1cc(-c2ccc(Cl)cc2)no1 [Compound 29, 2-(methylamino)-2-oxoethyl 3-[3-(4-chlorophenyl)isoxazol-5-yl]propylcarbamate] | 158 to 160 | 
4 | CNC(=O)COC(=O)NCCCc1cc(-c2ccc(-c3ccccc3)cc2)no1 [Compound 30, 2-(methylamino)-2-oxoethyl 3-[3-(4-phenylphenyl)isoxazol-5-yl]propylcarbamate] | 198 to 200 | 
5 | NC(=O)COC(=O)NCCCCc1ccncc1 [Compound 37, 2-amino-2-oxoethyl 4-(pyrid-4-yl)butylcarbamate] | 124 to 126 | 
6 | CNC(=O)COC(=O)NCCCCc1cc(-c2ccc(Cl)cc2)no1 [Compound 48, 2-(methylamino)-2-oxoethyl 4-[3-(4-chlorophenyl)isoxazol-5-yl]butylcarbamate] |  | reduction of the number of tractions induced by the PBQ (male OF1 mice; administered 60 minutes before PBQ): 53%; reduction of the number of tractions induced by the PBQ (male OF1 mice; administered 120 minutes before PBQ): 62%
7 | CNC(=O)COC(=O)NCCCCn1ccc2ccccc21 [Compound 56, 2-(methylamino)-2-oxoethyl 4-(1H-indol-1-yl)butylcarbamate] | 64 to 67 | 
8 | CNC(=O)COC(=O)NCCCCn1ccc2cccnc21 [Compound 58, 2-(methylamino)-2-oxoethyl 4-(1H-pyrrolo[2,3-b]pyrid-1-yl)butylcarbamate] | 52 to 54 | 
9 | NC(=O)COC(=O)NCCCCCc1cncc2ccccc12 [Compound 68, 2-amino-2-oxoethyl 5-(isoquinolin-4-yl)pentylcarbamate] |  | IC50 [1]: 267 nM
10 | NC(=O)COC(=O)NCCCC#Cc1cccc2ccccc12 [Compound 71, 2-amino-2-oxoethyl [5-(naphth-1-yl)pent-4-yn-1-yl]carbamate] | 105 to 108 | 
